Measurements: ChEMBL document CHEMBL3885881, “DrugMatrix”
Where “and” joins values, the source holds several entries; their conditions need not be identical. Identical values can stand only once.

Species: Rattus norvegicus
Assay: DrugMatrix - Regimen: Daily Repeat
Format: toxicity, organism-based, Sprague-Dawley
Design: regimen Daily Repeat, gender Male, age 6-8 weeks
Conditions: in vivo, po, route oral GAVAGE; for ABSOLUTE BASOPHIL / ABSOLUTE LYMPHOCYTE / ABSOLUTE MONOCYTE / ABSOLUTE SEGMENTED NEUTROPHIL / BASOPHIL / EOSINOPHIL / ERYTHROCYTE COUNT / HEMATOCRIT / HEMOGLOBIN / LEUKOCYTE COUNT / LYMPHOCYTE / MEAN CORPUSCULAR HEMOGLOBIN / MEAN CORPUSCULAR HEMOGLOBIN CONCENTRATION / MEAN CORPUSCULAR VOLUME / MONOCYTE / NEUTROPHIL / NUCLEATED RED BLOOD CELLS / PLATELET COUNT / ABSOLUTE EOSINOPHIL: tissue Blood; for ALANINE AMINOTRANSFERASE / ALBUMIN / ALKALINE PHOSPHATASE / ASPARTATE AMINOTRANSFERASE / BLOOD UREA NITROGEN / CARBON DIOXIDE / CHLORIDE / CHOLESTEROL / CREATINE PHOSPHOKINASE / CREATININE / GLUCOSE / LACTATE DEHYDROGENASE / LIPASE / PHOSPHORUS / POTASSIUM / SODIUM / TOTAL BILIRUBIN / TOTAL PROTEIN / URIC ACID: tissue Plasma
[1] = 0 mg/kg, 72 h, dose level Control, time 3 day, vehicle 100 % WATER
[2] = 0 mg/kg, 120 h, dose level Control, time 5 day, vehicle 100 % WATER
[3] = 4.5 mg/kg, 72 h, dose level Low, time 3 day, vehicle 100 % WATER
[4] = 4.5 mg/kg, 120 h, dose level Low, time 5 day, vehicle 100 % WATER
[5] = 7 mg/kg, 96 h, dose level M1, time 4 day, […]

## COc1ccc2c(c1)c(CC(=O)O)c(C)n2C(=O)c1ccc(Cl)cc1 [INDOMETHACIN]
[1]
  ABSOLUTE BASOPHIL: 0 CELLS/uL
  ABSOLUTE LYMPHOCYTE: 6747 CELLS/uL and 14108.83 CELLS/uL
  ABSOLUTE MONOCYTE: 73 CELLS/uL and 81 CELLS/uL
  ABSOLUTE SEGMENTED NEUTROPHIL: 480 CELLS/uL and 818.67 CELLS/uL
  BASOPHIL: 0%
  EOSINOPHIL: 0% and 0.67%
  ERYTHROCYTE COUNT: 5.14 x10E6/uL and 5.56 x10E6/uL
  HEMATOCRIT: 32.27% and 34.5%
  HEMOGLOBIN: 12.53 G/DL and 13.45 G/DL
  LEUKOCYTE COUNT: 7.3 x10E3/uL and 15.1 x10E3/uL
  LYMPHOCYTE: 93%
  MEAN CORPUSCULAR HEMOGLOBIN: 24.37 pg and 24.2 pg
  MEAN CORPUSCULAR HEMOGLOBIN CONCENTRATION: 38.87 G/DL and 38.98 G/DL
  MEAN CORPUSCULAR VOLUME: 62.7 fL and 62.07 fL
  MONOCYTE: 1% and 0.5%
  NEUTROPHIL: 6% and 5.83%
  NUCLEATED RED BLOOD CELLS: 0 /100WBC
  PLATELET COUNT: 1023 x10E3/uL and 1193.33 x10E3/uL
  ALANINE AMINOTRANSFERASE: 49.33 u/L and 60.33 u/L
  ALBUMIN: 3.73 G/DL and 4 G/DL
  ALKALINE PHOSPHATASE: 331 u/L and 334.83 u/L
  ASPARTATE AMINOTRANSFERASE: 79.67 u/L and 74.5 u/L
  BLOOD UREA NITROGEN: 15.33 mg/dL and 13.5 mg/dL
  CARBON DIOXIDE: 30.33 mmol/L
  CHLORIDE: 100.67 MEQ/L and 98.33 MEQ/L
  CHOLESTEROL: 77 mg/dL and 71.17 mg/dL
  CREATINE PHOSPHOKINASE: 319.67 u/L and 212 u/L
  CREATININE: 0.11 mg/dL and 0.21 mg/dL
  GLUCOSE: 169 mg/dL and 173.17 mg/dL
  LACTATE DEHYDROGENASE: 113.33 u/L and 101.5 u/L
  LIPASE: 10.33 u/L and 24.17 u/L
  PHOSPHORUS: 11.97 mg/dL and 10.87 mg/dL
  POTASSIUM: 5.06 MEQ/L and 6.06 MEQ/L
  SODIUM: 144.13 MEQ/L and 140.58 MEQ/L
  TOTAL BILIRUBIN: 0.2 mg/dL and 0.17 mg/dL
  TOTAL PROTEIN: 5.8 G/DL and 5.9 G/DL
  URIC ACID: 0.57 mg/dL and 1.23 mg/dL
[2]
  ABSOLUTE BASOPHIL: 0 CELLS/uL
  ABSOLUTE EOSINOPHIL: 31.33 CELLS/uL and 34.5 CELLS/uL
  ABSOLUTE LYMPHOCYTE: 7806.33 CELLS/uL and 8181 CELLS/uL
  ABSOLUTE MONOCYTE: 202 CELLS/uL and 82.67 CELLS/uL
  ABSOLUTE SEGMENTED NEUTROPHIL: 927 CELLS/uL and 435.17 CELLS/uL
  BASOPHIL: 0%
  EOSINOPHIL: 0.33% and 0.5%
  ERYTHROCYTE COUNT: 4.96 x10E6/uL and 5.31 x10E6/uL
  HEMATOCRIT: 32.37% and 33.83%
  HEMOGLOBIN: 12.53 G/DL and 13.37 G/DL
  LEUKOCYTE COUNT: 8.97 x10E3/uL and 8.73 x10E3/uL
  LYMPHOCYTE: 87.33% and 93.5%
  MEAN CORPUSCULAR HEMOGLOBIN: 25.27 pg and 25.2 pg
  MEAN CORPUSCULAR HEMOGLOBIN CONCENTRATION: 38.7 G/DL and 39.53 G/DL
  MEAN CORPUSCULAR VOLUME: 65.23 fL and 63.73 fL
  MONOCYTE: 2.33% and 1%
  NEUTROPHIL: 10% and 5%
  NUCLEATED RED BLOOD CELLS: 0 /100WBC
  PLATELET COUNT: 1189.33 x10E3/uL and 1057.33 x10E3/uL
  ALANINE AMINOTRANSFERASE: 53.33 u/L and 54.33 u/L
  ALBUMIN: 3.97 G/DL and 4.07 G/DL
  ALKALINE PHOSPHATASE: 326 u/L and 308.67 u/L
  ASPARTATE AMINOTRANSFERASE: 59.67 u/L and 83.17 u/L
  BLOOD UREA NITROGEN: 15 mg/dL and 14 mg/dL
  CARBON DIOXIDE: 33.67 mmol/L and 34 mmol/L
  CHLORIDE: 105 MEQ/L and 98 MEQ/L
  CHOLESTEROL: 73 mg/dL and 71.33 mg/dL
  CREATINE PHOSPHOKINASE: 208.33 u/L and 266.5 u/L
  CREATININE: 0.1 mg/dL and 0.27 mg/dL
  GLUCOSE: 153.33 mg/dL and 133 mg/dL
  LACTATE DEHYDROGENASE: 62 u/L and 127 u/L
  LIPASE: 10.33 u/L and 11.67 u/L
  PHOSPHORUS: 10.93 mg/dL and 10.6 mg/dL
  POTASSIUM: 5.5 MEQ/L and 6.17 MEQ/L
  SODIUM: 147.27 MEQ/L and 142.68 MEQ/L
  TOTAL BILIRUBIN: 0.17 mg/dL and 0.15 mg/dL
  TOTAL PROTEIN: 5.87 G/DL and 6.03 G/DL
  URIC ACID: 0.4 mg/dL and 0.75 mg/dL
[3]
  ABSOLUTE BASOPHIL: 0 CELLS/uL
  ABSOLUTE EOSINOPHIL: 0 CELLS/uL
  ABSOLUTE LYMPHOCYTE: 7564.67 CELLS/uL
  ABSOLUTE MONOCYTE: 197.67 CELLS/uL
  ABSOLUTE SEGMENTED NEUTROPHIL: 937.67 CELLS/uL
  BASOPHIL: 0%
  EOSINOPHIL: 0%
  ERYTHROCYTE COUNT: 5.16 x10E6/uL
  HEMATOCRIT: 32.73%
  HEMOGLOBIN: 13.1 G/DL
  LEUKOCYTE COUNT: 8.7 x10E3/uL
  LYMPHOCYTE: 87.33%
  MEAN CORPUSCULAR HEMOGLOBIN: 25.43 pg
  MEAN CORPUSCULAR HEMOGLOBIN CONCENTRATION: 40.03 G/DL
  MEAN CORPUSCULAR VOLUME: 63.57 fL
  MONOCYTE: 2.33%
  NEUTROPHIL: 10.33%
  NUCLEATED RED BLOOD CELLS: 0 /100WBC
  PLATELET COUNT: 1131.67 x10E3/uL
  ALANINE AMINOTRANSFERASE: 52.67 u/L
  ALBUMIN: 3.9 G/DL
  ALKALINE PHOSPHATASE: 367 u/L
  ASPARTATE AMINOTRANSFERASE: 74.33 u/L
  BLOOD UREA NITROGEN: 13.67 mg/dL
  CARBON DIOXIDE: 24.67 mmol/L
  CHLORIDE: 94 MEQ/L
  CHOLESTEROL: 72.33 mg/dL
  CREATINE PHOSPHOKINASE: 273.33 u/L
  CREATININE: 0.1 mg/dL
  GLUCOSE: 165 mg/dL
  LACTATE DEHYDROGENASE: 101.67 u/L
  LIPASE: 9 u/L
  PHOSPHORUS: 11.6 mg/dL
  POTASSIUM: 5.46 MEQ/L
  SODIUM: 137.1 MEQ/L
  TOTAL BILIRUBIN: 0.13 mg/dL
  TOTAL PROTEIN: 5.7 G/DL
  URIC ACID: 0.8 mg/dL
[4]
  ABSOLUTE BASOPHIL: 0 CELLS/uL
  ABSOLUTE EOSINOPHIL: 66.67 CELLS/uL
  ABSOLUTE LYMPHOCYTE: 7873.33 CELLS/uL
  ABSOLUTE MONOCYTE: 253.33 CELLS/uL
  ABSOLUTE SEGMENTED NEUTROPHIL: 1273.33 CELLS/uL
  BASOPHIL: 0%
  EOSINOPHIL: 0.67%
  ERYTHROCYTE COUNT: 4.7 x10E6/uL
  HEMATOCRIT: 30.3%
  HEMOGLOBIN: 12.03 G/DL
  LEUKOCYTE COUNT: 9.47 x10E3/uL
  LYMPHOCYTE: 83%
  MEAN CORPUSCULAR HEMOGLOBIN: 25.6 pg
  MEAN CORPUSCULAR HEMOGLOBIN CONCENTRATION: 39.67 G/DL
  MEAN CORPUSCULAR VOLUME: 64.47 fL
  MONOCYTE: 2.67%
  NEUTROPHIL: 13.67%
  NUCLEATED RED BLOOD CELLS: 0 /100WBC
  PLATELET COUNT: 1362.67 x10E3/uL
  ALANINE AMINOTRANSFERASE: 48.67 u/L
  ALBUMIN: 3.83 G/DL
  ALKALINE PHOSPHATASE: 350.67 u/L
  ASPARTATE AMINOTRANSFERASE: 60.67 u/L
  BLOOD UREA NITROGEN: 12 mg/dL
  CARBON DIOXIDE: 32 mmol/L
  CHLORIDE: 105 MEQ/L
  CHOLESTEROL: 66.67 mg/dL
  CREATINE PHOSPHOKINASE: 173.67 u/L
  CREATININE: 0.11 mg/dL
  GLUCOSE: 154 mg/dL
  LACTATE DEHYDROGENASE: 70.33 u/L
  LIPASE: 9.67 u/L
  PHOSPHORUS: 11 mg/dL
  POTASSIUM: 5.99 MEQ/L
  SODIUM: 146.87 MEQ/L
  TOTAL BILIRUBIN: 0.2 mg/dL
  TOTAL PROTEIN: 5.77 G/DL
  URIC ACID: 0.53 mg/dL
[5]
  ABSOLUTE BASOPHIL: 0 CELLS/uL
  ABSOLUTE EOSINOPHIL: 0 CELLS/uL
  ABSOLUTE LYMPHOCYTE: 6250 cells/µL
  ABSOLUTE MONOCYTE: 160 cells/µL
  BASOPHIL: 0%
  EOSINOPHIL: 0%
  ERYTHROCYTE COUNT: 3.97 x10E6/uL
  HEMATOCRIT: 25.4%
  HEMOGLOBIN: 8.9 G/DL
  LEUKOCYTE COUNT: 12.7 x10E3/uL
  LYMPHOCYTE: 78.5%
  MEAN CORPUSCULAR HEMOGLOBIN: 22.6 pg
  MEAN CORPUSCULAR HEMOGLOBIN CONCENTRATION: 35.1 G/DL
  MEAN CORPUSCULAR VOLUME: 64.5 fL
  MONOCYTE: 2%
  NEUTROPHIL: 19.5%
